Laboratory results taken from US9546156B2, “N-bicyclic aryl,N'-pyrazolyl urea, thiourea, guanidine cyanoguanidine compounds as TrkA kinase inhibitors” (Array BioPharma Inc., priority 2012, dated 2017).

Experiments:
Test in all cases: Off-target kinase profiling (KinaseProfiler)
Assay type in all cases: biochemical
Conditions in all cases: 10 μM, ATP near Km
IRAK4 = target: T1, IRAK4 (Homo sapiens, UniProt Q9NWZ3)
T1 construct: purchased Millipore, Inc. (KinaseProfiler service)
Method: (§1) A representative compound (Example 16) of the invention was tested for off-target kinase activity at a concentration of 10 μM by Millipore, Inc. in their KinaseProfiler™ service against all the kinases available in their full kinase panel. The compound was run in duplicate at a concentration of ATP near the Km for each individual kinase according to Millipore's specifications. The results are shown in Table B. Data are reported as percent of control (POC) and are the average of the two replicates.

AKT1 = target: T2, AKT1 (Homo sapiens, UniProt P31749)
T2 construct: purchased Millipore, Inc. (KinaseProfiler service)
Method: as §1

CK1gamma2 = target: T3, CK1gamma2 (Homo sapiens, UniProt P78368)
T3 construct: purchased Millipore, Inc. (KinaseProfiler service)
T3 sequence (P78368 whole entry): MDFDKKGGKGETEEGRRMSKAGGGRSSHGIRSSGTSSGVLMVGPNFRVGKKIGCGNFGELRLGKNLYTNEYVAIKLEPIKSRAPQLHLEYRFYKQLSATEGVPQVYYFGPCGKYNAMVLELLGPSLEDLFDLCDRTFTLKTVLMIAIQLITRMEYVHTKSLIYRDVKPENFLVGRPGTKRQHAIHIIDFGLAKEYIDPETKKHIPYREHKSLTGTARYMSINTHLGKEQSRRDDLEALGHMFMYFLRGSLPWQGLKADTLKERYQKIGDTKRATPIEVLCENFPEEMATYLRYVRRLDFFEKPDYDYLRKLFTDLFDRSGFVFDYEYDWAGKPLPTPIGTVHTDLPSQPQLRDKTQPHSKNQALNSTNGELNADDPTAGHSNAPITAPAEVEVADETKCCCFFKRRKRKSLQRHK
Method: as §1

DYRK2 = target: T4, DYRK2 (Homo sapiens, UniProt Q92630)
T4 construct: purchased Millipore, Inc. (KinaseProfiler service)
Method: as §1

Flt3 = target: T5, Flt3 (Homo sapiens, UniProt P36888)
T5 construct: purchased Millipore, Inc. (KinaseProfiler service)
Method: as §1

eEF-2K = target: T6, eEF-2K (Homo sapiens, UniProt O00418)
T6 construct: purchased Millipore, Inc. (KinaseProfiler service)
Method: as §1

FAK = target: T7, FAK (Homo sapiens, UniProt Q05397)
T7 construct: purchased Millipore, Inc. (KinaseProfiler service)
Method: as §1

IR = target: T8, IR (Homo sapiens, UniProt P06213)
T8 construct: purchased Millipore, Inc. (KinaseProfiler service)
Method: as §1

Rsk3 = target: T9, Rsk3 (Homo sapiens, UniProt Q15349)
T9 construct: purchased Millipore, Inc. (KinaseProfiler service)
Method: as §1

Pim-3 = target: T10, Pim-3 (Homo sapiens, UniProt Q86V86)
T10 construct: purchased Millipore, Inc. (KinaseProfiler service)
Method: as §1

STK33 = target: T11, STK33 (Homo sapiens, UniProt Q9BYT3)
T11 construct: purchased Millipore, Inc. (KinaseProfiler service)
Method: as §1

MARK1 = target: T12, MARK1 (Homo sapiens, UniProt Q9P0L2)
T12 construct: purchased Millipore, Inc. (KinaseProfiler service)
Method: as §1

TEC Activated = target: T13, TEC Activated (Homo sapiens, UniProt P42680)
T13 construct: purchased Millipore, Inc. (KinaseProfiler service)
Method: as §1

PAK4 = target: T14, PAK4 (Homo sapiens, UniProt O96013)
T14 construct: purchased Millipore, Inc. (KinaseProfiler service)
Method: as §1

PRKG1beta = target: T15, PRKG1beta (Homo sapiens, UniProt Q13976)
T15 construct: purchased Millipore, Inc. (KinaseProfiler service)
Method: as §1

MKK7beta = target: T16, MKK7beta (Homo sapiens, UniProt O14733)
T16 construct: purchased Millipore, Inc. (KinaseProfiler service)
Method: as §1

JNK1alpha1 = target: T17, JNK1alpha1 (Homo sapiens, UniProt P45983)
T17 construct: purchased Millipore, Inc. (KinaseProfiler service)
Method: as §1

Syk = target: T18, Syk (Homo sapiens, UniProt P43405)
T18 construct: purchased Millipore, Inc. (KinaseProfiler service)
Method: as §1

SRC = target: T19, SRC (Homo sapiens, UniProt P12931)
T19 construct: purchased Millipore, Inc. (KinaseProfiler service)
Method: as §1

MINK = target: T20, MINK (Homo sapiens, UniProt Q8N4C8)
T20 construct: purchased Millipore, Inc. (KinaseProfiler service)
Method: as §1

CDK6/cyclinD3 = target: T21, CDK6/cyclinD3 (Homo sapiens, UniProt Q00534)
T21 construct: purchased Millipore, Inc. (KinaseProfiler service)
Method: as §1

CHK1 = target: T22, CHK1 (Homo sapiens, UniProt O14757)
T22 construct: purchased Millipore, Inc. (KinaseProfiler service)
Method: as §1

Pim-2 = target: T23, Pim-2 (Homo sapiens, UniProt Q9P1W9)
T23 construct: purchased Millipore, Inc. (KinaseProfiler service)
T23 sequence (Q9P1W9 whole entry): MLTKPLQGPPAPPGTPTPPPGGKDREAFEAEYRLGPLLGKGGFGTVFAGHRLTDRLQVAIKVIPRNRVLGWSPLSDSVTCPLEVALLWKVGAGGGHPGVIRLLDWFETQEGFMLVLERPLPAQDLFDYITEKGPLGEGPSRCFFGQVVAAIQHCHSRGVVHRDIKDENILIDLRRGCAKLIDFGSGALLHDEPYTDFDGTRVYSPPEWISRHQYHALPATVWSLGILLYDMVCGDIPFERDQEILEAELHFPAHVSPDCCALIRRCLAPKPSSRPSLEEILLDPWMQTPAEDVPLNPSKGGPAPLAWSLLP
Method: as §1

MYLK = target: T24, MYLK (Homo sapiens, UniProt Q15746)
T24 construct: purchased Millipore, Inc. (KinaseProfiler service)
Method: as §1

EphB1 = target: T25, EphB1 (Homo sapiens, UniProt P54762)
T25 construct: purchased Millipore, Inc. (KinaseProfiler service)
Method: as §1

p38gamma = target: T26, p38gamma (Homo sapiens, UniProt P53778)
T26 construct: purchased Millipore, Inc. (KinaseProfiler service)
Method: as §1

MSSK1 = target: T27, MSSK1 (Homo sapiens, UniProt Q9UPE1)
T27 construct: purchased Millipore, Inc. (KinaseProfiler service)
T27 sequence (Q9UPE1 whole entry): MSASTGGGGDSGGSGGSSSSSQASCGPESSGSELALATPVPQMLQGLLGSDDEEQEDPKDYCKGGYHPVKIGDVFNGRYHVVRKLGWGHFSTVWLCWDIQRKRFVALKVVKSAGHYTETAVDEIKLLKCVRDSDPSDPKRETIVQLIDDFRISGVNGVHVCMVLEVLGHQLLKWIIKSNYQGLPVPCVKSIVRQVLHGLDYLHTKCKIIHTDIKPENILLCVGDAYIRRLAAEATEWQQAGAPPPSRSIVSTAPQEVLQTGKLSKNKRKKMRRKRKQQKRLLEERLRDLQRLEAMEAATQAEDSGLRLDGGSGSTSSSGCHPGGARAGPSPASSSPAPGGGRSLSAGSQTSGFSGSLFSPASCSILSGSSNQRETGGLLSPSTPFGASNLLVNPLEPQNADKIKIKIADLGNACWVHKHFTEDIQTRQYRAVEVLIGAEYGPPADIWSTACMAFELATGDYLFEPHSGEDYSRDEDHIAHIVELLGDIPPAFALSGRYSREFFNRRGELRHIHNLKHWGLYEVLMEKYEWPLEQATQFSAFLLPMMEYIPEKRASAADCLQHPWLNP
Method: as §1

Rsk2 = target: T28, Rsk2 (Homo sapiens, UniProt P51812)
T28 construct: purchased Millipore, Inc. (KinaseProfiler service)
Method: as §1

ERK2 = target: T29, ERK2 (Homo sapiens, UniProt P28482)
T29 construct: purchased Millipore, Inc. (KinaseProfiler service)
Method: as §1

TAO2 = target: T30, TAO2 (Homo sapiens, UniProt Q9UL54)
T30 construct: purchased Millipore, Inc. (KinaseProfiler service)
Method: as §1

Flt4 = target: T31, Flt4 (Homo sapiens, UniProt P35916)
T31 construct: purchased Millipore, Inc. (KinaseProfiler service)
Method: as §1

NEK11 = target: T32, NEK11 (Homo sapiens, UniProt Q8NG66)
T32 construct: purchased Millipore, Inc. (KinaseProfiler service)
T32 sequence (Q8NG66 whole entry): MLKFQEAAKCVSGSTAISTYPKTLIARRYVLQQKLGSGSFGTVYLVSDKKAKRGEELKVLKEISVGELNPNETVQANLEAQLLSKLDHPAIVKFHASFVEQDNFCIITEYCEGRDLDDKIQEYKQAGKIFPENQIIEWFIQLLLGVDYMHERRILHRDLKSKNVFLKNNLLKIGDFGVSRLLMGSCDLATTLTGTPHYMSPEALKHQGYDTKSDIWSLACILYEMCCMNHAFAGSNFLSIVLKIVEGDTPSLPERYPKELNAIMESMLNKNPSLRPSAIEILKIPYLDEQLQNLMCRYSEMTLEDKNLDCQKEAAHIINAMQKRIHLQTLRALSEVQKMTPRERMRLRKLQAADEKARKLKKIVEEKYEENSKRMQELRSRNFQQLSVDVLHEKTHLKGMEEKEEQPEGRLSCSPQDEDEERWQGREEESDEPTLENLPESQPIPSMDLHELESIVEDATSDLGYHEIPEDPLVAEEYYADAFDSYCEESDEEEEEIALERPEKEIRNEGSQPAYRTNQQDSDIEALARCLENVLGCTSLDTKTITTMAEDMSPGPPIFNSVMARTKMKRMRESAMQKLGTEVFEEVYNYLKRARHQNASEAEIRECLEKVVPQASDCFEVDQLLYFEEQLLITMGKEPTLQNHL
Method: as §1

Yes = target: T33, Yes (Homo sapiens, UniProt P07947)
T33 construct: purchased Millipore, Inc. (KinaseProfiler service)
Method: as §1

BTK = target: T34, BTK (Homo sapiens, UniProt Q06187)
T34 construct: purchased Millipore, Inc. (KinaseProfiler service)
Method: as §1

PKCbetaII = target: T35, PKCbetaII (Homo sapiens, UniProt P05771)
T35 construct: purchased Millipore, Inc. (KinaseProfiler service)
T35 sequence (P05771 1-673 isoform P05771-2): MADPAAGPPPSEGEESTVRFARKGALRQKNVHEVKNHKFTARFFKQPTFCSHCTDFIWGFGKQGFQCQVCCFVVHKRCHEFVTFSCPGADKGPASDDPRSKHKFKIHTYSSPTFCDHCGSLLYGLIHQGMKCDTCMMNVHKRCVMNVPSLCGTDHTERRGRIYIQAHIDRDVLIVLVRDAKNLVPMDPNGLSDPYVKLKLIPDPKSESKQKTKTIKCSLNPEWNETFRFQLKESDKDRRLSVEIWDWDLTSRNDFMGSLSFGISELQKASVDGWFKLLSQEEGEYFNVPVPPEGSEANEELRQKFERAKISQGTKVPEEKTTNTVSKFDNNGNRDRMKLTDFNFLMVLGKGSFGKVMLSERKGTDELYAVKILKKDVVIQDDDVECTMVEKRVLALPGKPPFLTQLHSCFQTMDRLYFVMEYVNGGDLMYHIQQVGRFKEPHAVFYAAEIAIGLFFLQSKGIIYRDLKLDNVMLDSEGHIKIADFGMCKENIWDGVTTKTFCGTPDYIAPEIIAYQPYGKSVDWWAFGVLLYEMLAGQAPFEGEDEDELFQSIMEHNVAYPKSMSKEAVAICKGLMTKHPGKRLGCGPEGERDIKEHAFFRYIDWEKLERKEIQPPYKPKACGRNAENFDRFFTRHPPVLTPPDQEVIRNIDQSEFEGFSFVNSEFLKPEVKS
Method: as §1

EphA5 = target: T36, EphA5 (Homo sapiens, UniProt P54756)
T36 construct: purchased Millipore, Inc. (KinaseProfiler service)
Method: as §1

ROCK-I = target: T37, ROCK-I (Homo sapiens, UniProt Q13464)
T37 construct: purchased Millipore, Inc. (KinaseProfiler service)
T37 sequence (Q13464 whole entry): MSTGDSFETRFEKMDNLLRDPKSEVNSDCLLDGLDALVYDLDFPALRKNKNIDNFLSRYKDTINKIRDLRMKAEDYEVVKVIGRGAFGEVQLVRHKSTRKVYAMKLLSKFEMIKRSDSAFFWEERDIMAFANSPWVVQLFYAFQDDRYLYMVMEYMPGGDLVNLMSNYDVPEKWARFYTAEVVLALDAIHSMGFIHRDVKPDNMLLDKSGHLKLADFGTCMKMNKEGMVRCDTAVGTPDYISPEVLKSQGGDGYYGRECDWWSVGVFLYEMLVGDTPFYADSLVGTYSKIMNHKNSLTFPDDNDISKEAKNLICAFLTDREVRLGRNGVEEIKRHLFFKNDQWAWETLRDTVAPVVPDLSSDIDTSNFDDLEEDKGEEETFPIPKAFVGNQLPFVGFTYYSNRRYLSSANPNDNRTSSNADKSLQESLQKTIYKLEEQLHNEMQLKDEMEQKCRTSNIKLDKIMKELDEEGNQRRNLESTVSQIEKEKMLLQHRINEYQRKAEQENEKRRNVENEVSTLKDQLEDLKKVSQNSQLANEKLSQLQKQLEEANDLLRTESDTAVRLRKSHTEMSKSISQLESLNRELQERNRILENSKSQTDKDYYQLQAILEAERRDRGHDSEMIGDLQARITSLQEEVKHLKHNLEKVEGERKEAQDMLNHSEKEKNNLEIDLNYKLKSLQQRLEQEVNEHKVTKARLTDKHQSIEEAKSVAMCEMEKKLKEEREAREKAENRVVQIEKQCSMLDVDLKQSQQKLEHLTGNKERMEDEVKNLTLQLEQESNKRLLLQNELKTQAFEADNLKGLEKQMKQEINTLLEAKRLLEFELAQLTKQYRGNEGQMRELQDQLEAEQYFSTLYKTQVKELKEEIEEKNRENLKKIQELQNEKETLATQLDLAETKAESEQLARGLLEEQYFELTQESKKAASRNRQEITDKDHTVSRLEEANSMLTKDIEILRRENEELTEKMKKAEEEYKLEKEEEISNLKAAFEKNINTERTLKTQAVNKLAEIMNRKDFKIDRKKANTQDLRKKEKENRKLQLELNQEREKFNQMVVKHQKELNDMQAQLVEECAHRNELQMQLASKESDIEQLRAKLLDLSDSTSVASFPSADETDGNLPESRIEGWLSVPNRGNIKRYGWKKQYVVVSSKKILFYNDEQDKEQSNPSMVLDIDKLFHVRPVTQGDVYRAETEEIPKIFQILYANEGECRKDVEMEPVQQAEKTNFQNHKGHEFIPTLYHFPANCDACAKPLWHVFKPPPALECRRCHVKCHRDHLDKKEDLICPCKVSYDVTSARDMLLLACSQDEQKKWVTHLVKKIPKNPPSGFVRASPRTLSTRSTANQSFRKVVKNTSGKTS
Method: as §1

KDR = target: T38, KDR (Homo sapiens, UniProt P35968)
T38 construct: purchased Millipore, Inc. (KinaseProfiler service)
Method: as §1

IKKbeta = target: T39, IKKbeta (Homo sapiens, UniProt O14920)
T39 construct: purchased Millipore, Inc. (KinaseProfiler service)
Method: as §1

TrkB = target: T40, TrkB (Homo sapiens, UniProt Q16620)
T40 construct: purchased Millipore, Inc. (KinaseProfiler service)
Method: as §1

IGF-1R Activated = target: T41, IGF-1R Activated (Homo sapiens, UniProt P08069)
T41 construct: purchased Millipore, Inc. (KinaseProfiler service)
Method: as §1

T1 sequence (Q9NWZ3 whole entry): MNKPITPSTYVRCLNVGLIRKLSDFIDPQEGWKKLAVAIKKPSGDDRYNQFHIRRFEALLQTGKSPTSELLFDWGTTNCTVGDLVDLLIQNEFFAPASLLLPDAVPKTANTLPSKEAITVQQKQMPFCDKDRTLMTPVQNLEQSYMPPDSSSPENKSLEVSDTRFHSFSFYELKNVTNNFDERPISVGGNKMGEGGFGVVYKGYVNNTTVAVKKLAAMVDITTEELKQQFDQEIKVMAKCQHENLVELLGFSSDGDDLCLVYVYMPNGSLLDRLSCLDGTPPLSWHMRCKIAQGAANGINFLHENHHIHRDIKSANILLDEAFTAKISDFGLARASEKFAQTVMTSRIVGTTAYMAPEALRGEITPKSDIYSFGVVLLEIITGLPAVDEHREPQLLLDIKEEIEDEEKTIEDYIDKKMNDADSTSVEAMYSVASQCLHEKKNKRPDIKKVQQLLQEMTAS

Avg POC (IRAK4): 175.5 POC
Avg POC (AKT1): 129 POC
Avg POC (CK1gamma2): 124.5 POC
Avg POC (DYRK2): 99 POC
Avg POC (Flt3): 121.5 POC
Avg POC (eEF-2K): 145.5 POC
Avg POC (FAK): 113.5 POC
Avg POC (IR): 92 POC
Avg POC (Rsk3): 106.5 POC
Avg POC (Pim-3): 113.5 POC
Avg POC (STK33): 106 POC
Avg POC (MARK1): 94.5 POC
Avg POC (TEC Activated): 121.5 POC
Avg POC (PAK4): 112.5 POC
Avg POC (PRKG1beta): 119 POC
Avg POC (MKK7beta): 115.5 POC
Avg POC (JNK1alpha1): 111.5 POC
Avg POC (Syk): 117.5 POC
Avg POC (SRC): 121.5 POC
Avg POC (MINK): 118.5 POC
Avg POC (CDK6/cyclinD3): 121 POC
Avg POC (CHK1): 139.5 POC
Avg POC (Pim-2): 141.5 POC
Avg POC (MYLK): 109.5 POC
Avg POC (EphB1): 122 POC
Avg POC (p38gamma): 116 POC
Avg POC (MSSK1): 136.5 POC
Avg POC (Rsk2): 139.5 POC
Avg POC (ERK2): 116.5 POC
Avg POC (TAO2): 119.5 POC
Avg POC (Flt4): 108 POC
Avg POC (NEK11): 116 POC
Avg POC (Yes): 107.5 POC
Avg POC (BTK): 121.5 POC
Avg POC (PKCbetaII): 106.5 POC
Avg POC (EphA5): 118.5 POC
Avg POC (ROCK-I): 118 POC
Avg POC (KDR): 159 POC
Avg POC (IKKbeta): 130.5 POC
Avg POC (TrkB): 9 POC
Avg POC (IGF-1R Activated): 101 POC
SMILES: COCc1ccc2cccc(NC(=O)Nc3c(C)c(-c4cnn(C)c4)nn3-c3ccccc3)c2c1 [Example 16, 1-(1′,4-dimethyl-1-phenyl-1H,1′H-[3,4′-bipyrazol]-5-yl)-3-(7-(methoxymethyl)naphthalen-1-yl)urea]
